Several values for one entry are separate records, joined by “and”; a condition that tells them apart may be missing. Identical values can stand only once.

Assay type in all cases: in vivo, human
For one experiment, the system named is IL-10. Briefly: Example 2: plasma IL-10 level by capture ELISA after treatment. The settings on record: for Median IL-10 after treatment / % reduction in IL-10 levels: plasma; for Median IL-10 after treatment: 3 days after end of ARA treatment (18 days after PZQ); for % reduction in IL-10 levels: after treatment vs baseline. Here is the method:
(§1) The children were divided randomly into three groups whereby the first group of children were given a single oral dose of Praziquantel (PZQ) (40 mg/kg body weight) on the first day of treatment and a placebo was given for the next three weeks (5 doses/week) (“PZQ-Placebo Treatment”). The PZQ was Distocide (Epico, El-Asher-Men-Ramadan City, Egypt). The placebo was 1 g VegCap, containing corn-soy (DSM Nutritional Products, Columbia, Md.). The second group of children received ARA (10 mg/kg body weight/day) for 15 days over three weeks (5 days/week) (“ARA Treatment”). The ARA was 1 g VegCap (DSM) containing approximately 395 mg ARA/capsule. The third group of children were given Praziquantel (40 mg/kg body weight) in the first day of treatment and then received 15 doses of ARA (10 mg/kg/day; 5 doses/week) (“PZQ-ARA Treatment”).
(§2) Approximately 10 ml blood were obtained from each child 2-3 days before the start of the treatment and 3 days after the end of the ARA (or ARA+PZQ) treatment, corresponding to 18 days after PZQ-only treatment. Stool samples were obtained from each child on 3 consecutive days 1 week after the end of the ARA treatment (corresponding to 4 weeks after the PZQ-only treatment) and 6 weeks after the end of the ARA treatment (corresponding to 9 weeks after the PZQ-only treatment). Epg was assessed on each stool sample.
(§3) Plasma was retrieved from heparinized blood following centrifugation at 400 g for 20 minutes and stored at −76° C. until assayed by capture enzyme-linked immunosorbent assay (ELISA) for levels of IL-10 and IFN-γ (ELISA MAX™ Set, BioLegend, San Diego, Calif.) according to the manufacturer's protocol.

Experiment [1] deals with Schistosoma mansoni. Briefly: Example 2: stool egg counts (epg) and cure rate in infected school children, El Kafr Sheikh. Also noted: % epg reduction: concentration or dose not given beside the values. The protocol: School children from El Kafr Sheikh were screened similar to those school children in Example 1 above.
as §1, §2
(§4) Subjects having initial baseline epg counts <100 were classified as having low infection. Subjects having initial baseline epg counts >100 but <400 were classified as having moderate infection. Subjects having initial baseline epg counts >400 were classified as having high infection.

Experiment [2] concerns Schistosoma mansoni. Briefly: Example 1: stool egg counts (Kato-Katz, epg) and cure rate in infected school children, Menoufiya. The note with it: for % cure rate: children with 0 epg after week 9. The protocol:
Approximately 2000 school children in villages of three districts in the Menoufiya governorate located about 100 km north of Cairo, Egypt were screened. Two microscopic slides of stool samples were examined for each child on 3 consecutive days by the Kato-Katz method and egg counts per gram (epg) were recorded. 66 children, 44 males and 22 females, 6-15 years old (mean±SD=11.7±1.6), with weight range of 25-52 kg (mean±SD=37.8±8.6), and epg of 24-384 were selected as test subjects. 20 sex, age, and social conditions-matched, parasite-free children were used as controls.
The 66 children were divided randomly into three groups whereby the first group of 20 children were given a single oral dose of Praziquantel (PZQ) (40 mg/kg body weight) on the first day of treatment and a placebo was given for the next three weeks (5 doses/week) (“PZQ-Placebo Treatment”). The PZQ was Distocide (Epico, El-Asher-Men-Ramadan City, Egypt). The placebo was 1 g VegCap, containing corn-soy (DSM Nutritional Products, Columbia, Md.). The second group of 23 children received ARA (10 mg/kg body weight/day) for 15 days over three weeks (5 days/week) (“ARA Treatment”) The ARA was 1 g VegCap (DSM) containing approximately 395 mg ARA/capsule. The third group of 23 children were given Praziquantel (40 mg/kg body weight) in the first day of treatment and then received 15 doses of ARA (10 mg/kg/day; 5 doses/week) (“PZQ+ARA Treatment”).
as §2, §4

For another experiment, the system named is IFN-γ. Briefly: Example 2: plasma IFN-γ level by capture ELISA after treatment. The note with it: for Median IFN-γ after treatment / % reduction in IFN-γ levels: plasma; for Median IFN-γ after treatment: 3 days after end of ARA treatment (18 days after PZQ); for % reduction in IFN-γ levels: after treatment vs baseline. The protocol: as §1, §2, §3
A general note: An ELISA detects its analyte on a solid surface through an enzyme-linked reagent.

Setting [3] is: initial baseline epg < 100, mean epg 6 weeks after treatment vs mean baseline epg.
Setting [4] is: initial baseline epg > 100 and < 400, mean epg 6 weeks after treatment vs mean baseline epg.
The mark [5] stands for this setting: initial baseline epg > 400, mean epg 6 weeks after treatment vs mean baseline epg.
Setting [6] is: low infection, initial baseline epg < 100.
The mark [7] stands for this setting: moderate infection, initial baseline epg > 100 and < 400.
[8] abbreviates: low infection (baseline epg < 100).
The mark [9] stands for this setting: moderate and high infection (baseline epg > 100).

In the case of `CCCCC/C=C\C/C=C\C/C=C\C/C=C\CCCC(=O)O` [ARA, all-cis 5,8,11,14-eicosatetreanoic acid], the “levels of circulating IL-10 (result in words)” value in the experiment with IL-10 (after treatment) is “more effective”. Also, the “Median IL-10 after treatment” value with IL-10 is on record as 40 pg/mL. Besides, the “% reduction in IL-10 levels” value in the experiment with IL-10 stood at 50%. The “% epg reduction” value in the experiment with Schistosoma mansoni [1] (setting [3]) is recorded as −2.6%; with Schistosoma mansoni [1] (setting [4]) it was 49%; with Schistosoma mansoni [1] (setting [5]), 65%. Also, the “% cured” value is 50% and 50 (22/43) % in the experiment with Schistosoma mansoni [1] (setting [6]); 49% and 28 (4/19) % in the experiment with Schistosoma mansoni [1] (setting [7]). Also, the “epg After Week 4” value with Schistosoma mansoni [2] (individual subjects with initial baseline epg < 100, stool 4 weeks after PZQ / 1 week after end of ARA) was 12 epg and 0 epg (4×) and 144 epg and 24 epg (2×) and 20 epg and 52 epg and 48 epg and 19 epg; in the experiment on Schistosoma mansoni [2] (individual subjects with initial baseline epg > 100, stool 4 weeks after PZQ / 1 week after end of ARA), 240 epg and 96 epg (3×) and 749 epg and 216 epg and 84 epg and 0 epg and 48 epg and 60 epg. The “epg After Week 9” value with Schistosoma mansoni [2] (individual subjects with initial baseline epg < 100, stool 9 weeks after PZQ / 6 weeks after end of ARA) is 0 epg (10×) and 376 epg and 20 epg and 42 epg; with Schistosoma mansoni [2] (individual subjects with initial baseline epg > 100, stool 9 weeks after PZQ / 6 weeks after end of ARA), 0 epg (5×) and 108 epg and 48 epg and 28 epg and 20 epg and 152 epg. Also, the results for the “% cure rate” value in the experiment on Schistosoma mansoni [2] (setting [8]) and in the experiment on Schistosoma mansoni [2] (setting [9]) were 77% and 50%, respectively. Besides, in the experiment on IFN-γ (after treatment), the “levels of circulating IFN-γ (result in words)” value is listed as “more effective”. Further, the “Median IFN-γ after treatment” value in the experiment with IFN-γ worked out at 25 pg/mL. The “% reduction in IFN-γ levels” value in the experiment on IFN-γ was 70%.
Consider `O=C(C1CCCCC1)N1CC(=O)N2CCc3ccccc3C2C1` (stereo not drawn) [PZQ, 2-(Cyclohexylcarbonyl)-1,2,3,6,7,11b-hexahydro-4H-pyrazino[2,1-a] isoquinolin-4-one, reference compound], for which the “Median IL-10 after treatment” value in the experiment with IL-10 was 36 pg/mL. Further, the “% reduction in IL-10 levels” value in the experiment with IL-10 was determined as 42%. Moreover, the “% cured” value is on record as 30 (8/26) % in the experiment with Schistosoma mansoni [1] (high infection, initial baseline epg > 400); 81% in the experiment with Schistosoma mansoni [1] (high infection, initial baseline epg > 400, listed as PZQ-Placebo); 57 (20/35) % in the experiment on Schistosoma mansoni [1] (setting [6]); 57% with Schistosoma mansoni [1] (low infection, initial baseline epg < 100, listed as PZQ-Placebo); 43 (10/23) % in the experiment with Schistosoma mansoni [1] (setting [7]); 70% in the experiment with Schistosoma mansoni [1] (moderate infection, initial baseline epg > 100 and < 400, listed as PZQ-Placebo). Besides, the results for the “% epg reduction” value with Schistosoma mansoni [1] (setting [3]), in the experiment with Schistosoma mansoni [1] (setting [4]) and in the experiment on Schistosoma mansoni [1] (setting [5]) were 50%, 70% and 81%, respectively. For the same molecule, the “epg After Week 4” value is 8 epg and 0 epg (9×) and 5 epg (2×) in the experiment on Schistosoma mansoni [2] (individual subjects with initial baseline epg < 100, stool 4 weeks after PZQ / 1 week after end of ARA, listed as PZQ-Placebo); 0 epg (3×) and 16 epg with Schistosoma mansoni [2] (individual subjects with initial baseline epg > 100, stool 4 weeks after PZQ / 1 week after end of ARA, listed as PZQ- Placebo). The “epg After Week 9” value is 10 epg and 4 epg and 0 epg (10×) and 6 epg and 20 epg in the experiment with Schistosoma mansoni [2] (individual subjects with initial baseline epg < 100, stool 9 weeks after PZQ / 6 weeks after end of ARA, listed as PZQ-Placebo); 0 epg (4×) and 10 epg and 30 epg with Schistosoma mansoni [2] (individual subjects with initial baseline epg > 100, stool 9 weeks after PZQ / 6 weeks after end of ARA, listed as PZQ- Placebo). Moreover, the “% cure rate” value with Schistosoma mansoni [2] (setting [8]) turned out to be 71%; in the experiment with Schistosoma mansoni [2] (setting [9]) it was 67%. The “Median IFN-γ after treatment” value in the experiment with IFN-γ was 32.5 pg/mL. Moreover, in the experiment with IFN-γ, the “% reduction in IFN-γ levels” value amounted to 60%.

The record behind these values is patent US20170172963A1, “COMPOSITIONS AND METHODS FOR THE PREVENTION AND OR TREATMENT OF SCHISTOSOMIASIS” (DSM IP ASSETS B.V., priority 2014, published 2017).
